{"source": "ChEMBL document CHEMBL4422660", "about": "“Synthesis of NSC 106084 and NSC 14778 and evaluation of their DNMT inhibitory activity” (Bioorg Med Chem Lett, 2019)", "test_system": "DNA", "assay": "Induction of DNA intercalation using nucleosomal DNA (unknown origin) up to 1 mM by CYBR Green dye-based fluorescence assay", "assay_type": "nucleic-acid assay", "note": "Calls of active or inactive are those of the source. The calls are words filed in the database; no cut-off is given here.", "data": [{"compound": "O=C(O)c1cc(Cc2ccc(O)c(C(=O)O)c2)ccc1O", "values": [{"measurement": "Activity", "value": "inactive"}]}]}
